In the SangsterLogP compilation one finds logP data, which are given here for 33 compounds.

Assay in one data set: not given
The term logP denotes the decadic logarithm of the partition coefficient of the neutral form, usually between octanol and water. Read a high logP as a more lipophilic compound. As for `CNC(=O)Oc1cccc(I)c1`, the lipophilicity (logP) turned out to be 2.33. Still for that read-out and setting: to `CCc1ccc(OC(=O)N(C)C)cc1` belongs 2.58; to `CCC(C)c1ccc(OC(=O)N(C)C)cc1` (stereo not drawn), 3.6; to `CNC(=O)Oc1ccc(I)cc1`, 2.34. Take `Cc1ccc(OC(=O)N(C)C)cc1`: the logP is 2.1. Take `CN(C)C(=O)Oc1ccc(Cl)cc1`: the logP worked out at 2.23. As for `CNC(=O)Oc1cccc(C)c1`, the logP was determined as 1.73. In the case of `CCc1ccc(OC(=O)NC)cc1`, the logP was determined as 2.27. As to `CNC(=O)Oc1cccc(C#N)c1`, the logP amounted to 1.01.

Turning to `CNC(=O)Oc1cccc(C(C)=O)c1`, the logP turned out to be 0.97. The logP values of the last two compounds are within 0.2 log units of each other. `CN(C)C(=O)Oc1ccc([N+](=O)[O-])cc1` came in with a logP of 1.54. For `CNC(=O)Oc1ccc(F)cc1`, the logP came to 1.35. Compound `CCOc1cccc(OC(=O)NC)c1` yielded a log partition coefficient (logP) of 1.82. `CNC(=O)Oc1cccc(OC)c1` returned a logP of 1.34. `CCc1cccc(OC(=O)NC)c1` came in with a logP of 2.23. For `CN(C)C(=O)Oc1ccc(F)cc1`, the logP is 1.65. Same read-out and setting: to `CC(C)c1ccc(OC(=O)N(C)C)cc1` belongs 3.07; to `CNC(=O)Oc1ccc(C)cc1`, 1.73.

`CNC(=O)Oc1cccc([N+](=O)[O-])c1` returned a logP of 1.37. In turn, `CNC(=O)Oc1cccc(N(C)C)c1` gave a logP of 1.64. In turn, `CCC(=O)c1cccc(OC(=O)NC)c1` had a logP of 1.51. `CC(=O)c1ccc(OC(=O)N(C)C)cc1`: the logP stood at 1.23.

Compound `CN(C)C(=O)Oc1cccc(Cl)c1` came in with a logP of 2.26. As to `CNC(=O)Oc1ccc(OC)cc1`, the logP worked out at 1.23. Consider `CCOc1ccc(OC(=O)NC)cc1`, for which the logP was determined as 1.75.

Another data set is described as follows: method code SF-HPLC, from DOI: 10.1248/cpb.44.1338.
The compound `CN(C)C(=O)Oc1cccc(C#N)c1` came in with a logP of 1.23. `CCCc1ccc(OC(=O)N(C)C)cc1`: the logP was 3.15. Compound `CN(C)C(=O)Oc1ccc(Br)cc1` returned a logP of 2.46.

Turning to `CCc1cccc(OC(=O)N(C)C)c1`, the logP was found to be 2.47.

The compound `CN(C)C(=O)Oc1cccc(N(C)C)c1` returned a logP of 1.93. On to `CN(C)C(=O)Oc1cccc([N+](=O)[O-])c1`, for which the logP was found to be 1.56.

As for `CN(C)C(=O)Oc1ccc(C#N)cc1`, the logP was 1.21.

`CN(C)C(=O)Oc1cccc(F)c1`: the logP was determined as 1.75.
